Laboratory results taken from PMC6225228, “Design, Synthesis and Evaluation of N-pyrazinylbenzamides as Potential Antimycobacterial Agents” (Molecules : A Journal of Synthetic Chemistry and Natural …, 2018).
Converted amounts (≈) assume the structure as drawn. Like-named read-outs stand apart in the source and are kept apart here.

What was measured:
[1] = test system: Mycobacterium tuberculosis H37Rv CNCTC My 331/88 (ATCC 27294); assay: Antimycobacterial microdilution MABA, M. tuberculosis; assay type: cell-based; conditions: for MIC: Mycobacterium tuberculosis, read-out: Mtb H37Rv ATCC 27294 MIC, Middlebrook 7H9 with OADC growth supplement, pH = 6.6, MABA; for Mtb H37Rv ATCC 27294 MIC: Middlebrook 7H9 with OADC growth supplement, pH = 6.6, MABA
[2] = test system: M. kansasii CNCTC My 235/80 (ATCC 12478); assay: Antimycobacterial microdilution MABA, M. kansasii; assay type: cell-based, Mycobacterium kansasii; conditions: for M. kans. ATCC 12478 MIC: Middlebrook 7H9 with OADC, pH 6.6, MABA; for MIC: Mycobacterium kansasii, ATCC12478, pH 6.6, read-out: M. kans. ATCC 12478 MIC, Middlebrook 7H9 with OADC, pH 6.6, MABA
[3] = test system: M. avium ssp. avium CNCTC My 80/72 (ATCC 15769); assay: Antimycobacterial microdilution MABA, M. avium; assay type: cell-based, Mycobacterium avium; conditions: for M. avium ATCC 15769 MIC: Middlebrook 7H9 with OADC, pH 6.6, MABA; for MIC: Mycobacterium avium, ATCC15769, pH 6.6, read-out: M. avium ATCC 15769 MIC
[4] = test system: Mycobacterium smegmatis CCM 4622 (ATCC 607); assay: Antimycobacterial microdilution, M. smegmatis; assay type: cell-based; conditions: Mycolicibacterium smegmatis, read-out: M. smeg. ATCC 607 MIC
[5] = test system: Staphylococcus aureus CCM 4516/08; assay: Antibacterial microdilution broth, SA; assay type: cell-based; conditions: Staphylococcus aureus
[6] = test system: Staphylococcus aureus H 5996/08 methicillin resistant; assay: microbe, parasite or virus in culture; assay type: cell-based; conditions: Staphylococcus aureus, MRSA, read-out: MIC MRSA
[7] = test system: Staphylococcus epidermidis H 6966/08; assay: Antibacterial microdilution broth, SE; assay type: cell-based; conditions: Staphylococcus epidermidis, read-out: MIC SE
[8] = test system: Enterococcus sp. J 14365/08; assay: Antibacterial microdilution broth, EF; assay type: cell-based; conditions: Enterococcus, read-out: MIC EF
[9] = test system: Escherichia coli CCM 4517; assay: Antibacterial microdilution broth, EC; assay type: cell-based; conditions: Escherichia coli, read-out: MIC EC
[10] = test system: Pseudomonas aeruginosa CCM 1961; assay: Antibacterial microdilution broth, PA; assay type: cell-based; conditions: Pseudomonas aeruginosa, read-out: MIC PA
[11] = test system: Candida albicans ATCC 44859; assay: Antifungal microdilution broth, CA; assay type: cell-based; conditions: Candida albicans, read-out: MIC CA
Candida tropicalis 156 = assay: Antifungal microdilution broth, CT; assay type: cell-based; conditions: read-out: MIC CT
Candida krusei E28 = assay: Antifungal microdilution broth, CK; assay type: cell-based; conditions: Pichia kudriavzevii, read-out: MIC CK
Candida glabrata 20/I = assay: Antifungal microdilution broth, CG; assay type: cell-based; conditions: Nakaseomyces glabratus, 20/I, read-out: MIC CG
Trichosporon asahii 1188 = assay: Antifungal microdilution broth, TA; assay type: cell-based; conditions: read-out: MIC TA
[12] = test system: Aspergillus fumigatus 231; assay: Antifungal microdilution broth, AF; assay type: cell-based; conditions: read-out: MIC AF
[13] = test system: Lichtheimia corymbifera 272; assay: Antifungal microdilution broth, LC; assay type: cell-based; conditions: read-out: MIC LC
[14] = test system: Trichophyton interdigitale 445; assay: Antifungal microdilution broth, TI; assay type: cell-based; conditions: read-out: MIC TI
[15] = CCM4516, 24 h, read-out: MIC SA, 24 h
[16] = CCM4516, 48 h, read-out: MIC SA, 48 h
[17] = Trichosporon asahii, 1188, 24 h
[18] = Trichosporon asahii, 1188, 48 h
[19] = Aspergillus fumigatus, 231, 24 h
[20] = Aspergillus fumigatus, 231, 48 h
[21] = Lichtheimia corymbifera, 272, 24 h
[22] = Lichtheimia corymbifera, 272, 48 h
[23] = Trichophyton interdigitale, 445, 72 h
[24] = Trichophyton interdigitale, 445, 120 h

## COc1ccc(C(=O)Nc2cnccn2)cc1 [Compound 1g]
[1]
  MIC: 25 µg/mL (≈ 109 µM)
[2]
  M. kans. ATCC 12478 MIC: >100 µg/mL
  MIC: > 100 µg/mL
[3]
  M. avium ATCC 15769 MIC: >100 µg/mL
  MIC: > 100 µg/mL
[4]
  MIC: ≥ 500 µg/mL
[5]; [15]
  MIC: > 500 µM
[5]; [16]
  MIC: > 500 µM
[6]; 24 h
  MIC: > 500 µM
[6]; 48 h
  MIC: > 500 µM
[7]; H6966/08, 24 h
  MIC: > 500 µM
[7]; H6966/08, 48 h
  MIC: > 500 µM
[8]; SP.J14365/08, 24 h
  MIC: > 500 µM
[8]; SP.J14365/08, 48 h
  MIC: > 500 µM
[9]; CCM4517, 24 h
  MIC: > 500 µM
[9]; CCM4517, 48 h
  MIC: > 500 µM
[10]; CCM1961, 72 h
  MIC: > 500 µM
[10]; CCM1961, 120 h
  MIC: > 500 µM
[11]; ATCC44859, 24 h
  MIC: > 500 µM
[11]; ATCC44859, 48 h
  MIC: > 500 µM
Candida tropicalis 156; Candida tropicalis, 156, 24 h
  MIC: > 500 µM
Candida tropicalis 156; Candida tropicalis, 156, 48 h
  MIC: > 500 µM
Candida krusei E28; E28, 24 h
  MIC: > 500 µM
Candida krusei E28; E28, 48 h
  MIC: > 500 µM
Candida glabrata 20/I; 24 h
  MIC: > 500 µM
Candida glabrata 20/I; 48 h
  MIC: > 500 µM
Trichosporon asahii 1188; [17]
  MIC: > 500 µM
Trichosporon asahii 1188; [18]
  MIC: > 500 µM
[12]; [19]
  MIC: > 500 µM
[12]; [20]
  MIC: > 500 µM
[13]; [21]
  MIC: > 500 µM
[13]; [22]
  MIC: > 500 µM
[14]; [23]
  MIC: > 500 µM
[14]; [24]
  MIC: > 500 µM
other
  melting point: 156 to 156.6 °C

## Cc1ccc(C(=O)Nc2cnccn2)cc1 [Compound 1h]
[1]
  Mtb H37Rv ATCC 27294 MIC: >100 µg/mL
  MIC: > 100 µg/mL
[2]
  MIC: > 100 µg/mL
[3]
  MIC: > 100 µg/mL
[4]
  MIC: ≥ 500 µg/mL
[5]; [15]
  MIC: > 500 µM
[5]; [16]
  MIC: > 500 µM
[6]; 24 h
  MIC: > 500 µM
[6]; 48 h
  MIC: > 500 µM
[7]; H6966/08, 24 h
  MIC: 500 µM (≈ 107 µg/mL)
[7]; H6966/08, 48 h
  MIC: 500 µM (≈ 107 µg/mL)
[8]; SP.J14365/08, 24 h
  MIC: > 500 µM
[8]; SP.J14365/08, 48 h
  MIC: > 500 µM
[9]; CCM4517, 24 h
  MIC: > 500 µM
[9]; CCM4517, 48 h
  MIC: > 500 µM
[10]; CCM1961, 72 h
  MIC: 500 µM (≈ 107 µg/mL)
[10]; CCM1961, 120 h
  MIC: 500 µM (≈ 107 µg/mL)
[11]; ATCC44859, 24 h
  MIC: 500 µM (≈ 107 µg/mL)
[11]; ATCC44859, 48 h
  MIC: 500 µM (≈ 107 µg/mL)
Candida tropicalis 156; Candida tropicalis, 156, 24 h
  MIC: > 500 µM
Candida tropicalis 156; Candida tropicalis, 156, 48 h
  MIC: > 500 µM
Candida krusei E28; E28, 24 h
  MIC: > 500 µM
Candida krusei E28; E28, 48 h
  MIC: > 500 µM
Candida glabrata 20/I; 24 h
  MIC: > 500 µM
Candida glabrata 20/I; 48 h
  MIC: > 500 µM
Trichosporon asahii 1188; [17]
  MIC: > 500 µM
Trichosporon asahii 1188; [18]
  MIC: > 500 µM
[12]; [19]
  MIC: > 500 µM
[12]; [20]
  MIC: > 500 µM
[13]; [21]
  MIC: > 500 µM
[13]; [22]
  MIC: > 500 µM
[14]; [23]
  MIC: > 500 µM
[14]; [24]
  MIC: > 500 µM
other
  melting point: 163.3 to 166 °C

## O=C(Nc1cnccn1)c1ccccc1Cl [Compound 1j]
[1]
  Mtb H37Rv ATCC 27294 MIC: >100 µg/mL
  MIC: > 100 µg/mL
[2]
  M. kans. ATCC 12478 MIC: >100 µg/mL
  MIC: > 100 µg/mL
[3]
  M. avium ATCC 15769 MIC: >100 µg/mL
  MIC: > 100 µg/mL
[4]
  MIC: 250 µg/mL (≈ 1070 µM)
[5]; [15]
  MIC: 250 µM (≈ 58.4 µg/mL)
[5]; [16]
  MIC: 250 µM (≈ 58.4 µg/mL)
[6]; 24 h
  MIC: > 500 µM
[6]; 48 h
  MIC: > 500 µM
[7]; H6966/08, 24 h
  MIC: 500 µM (≈ 117 µg/mL)
[7]; H6966/08, 48 h
  MIC: 500 µM (≈ 117 µg/mL)
[8]; SP.J14365/08, 24 h
  MIC: > 500 µM
[8]; SP.J14365/08, 48 h
  MIC: > 500 µM
[9]; CCM4517, 24 h
  MIC: > 500 µM
[9]; CCM4517, 48 h
  MIC: > 500 µM
[10]; CCM1961, 72 h
  MIC: 250 µM (≈ 58.4 µg/mL)
[10]; CCM1961, 120 h
  MIC: 250 µM (≈ 58.4 µg/mL)
[11]; ATCC44859, 24 h
  MIC: > 500 µM
[11]; ATCC44859, 48 h
  MIC: > 500 µM
Candida tropicalis 156; Candida tropicalis, 156, 24 h
  MIC: > 500 µM
Candida tropicalis 156; Candida tropicalis, 156, 48 h
  MIC: > 500 µM
Candida krusei E28; E28, 24 h
  MIC: > 500 µM
Candida krusei E28; E28, 48 h
  MIC: > 500 µM
Candida glabrata 20/I; 24 h
  MIC: > 500 µM
Candida glabrata 20/I; 48 h
  MIC: > 500 µM
Trichosporon asahii 1188; [17]
  MIC: > 500 µM
Trichosporon asahii 1188; [18]
  MIC: > 500 µM
[12]; [19]
  MIC: > 500 µM
[12]; [20]
  MIC: > 500 µM
[13]; [21]
  MIC: > 500 µM
[13]; [22]
  MIC: > 500 µM
[14]; [23]
  MIC: > 500 µM
[14]; [24]
  MIC: > 500 µM
other
  melting point: 128.2 to 129.7 °C
